What was measured:
ventral pallidal neurons = test: Electrophysiology of ventral pallidal neurons, i.v. METH dose-response in chloral hydrate-anesthetized rats; format: in vivo, rat
Procedure: Based on the biochemical results and because the ventral pallidum contains one of the highest concentrations of 5-HT in the brain, electrophysiological evaluations of this region in rats behaviorally sensitized to METH were conducted (with a 5-day once daily treatment of 2.5 mg/kg). The acute challenge was intravenously administered METH (via a tail vein cannula) as previously used by T. C. Napier's lab ^e.g., [34] where the drug is given in a cumulative dosing fashion such that each dose, administered in 2 min-intervals, essentially doubles the previous dose. METH was tested using a range of 0.06-4.0 mg/kg in saline vehicle. […] Moreover, this approach establishes if systemic administration of METH, in doses that include those producing behavioral sensitization, are sufficient promote sensitized cellular responding and thus allows for direct comparisons of cellular responding to behavioral outcomes. After a 3-day withdrawal, the ability of intravenously administered METH or 1-(2,5-dimethoxy-4-iodophenyl)-2-aminopropane (DOI) to increase ventral pallidal cell firing was enhanced in chloral hydrate-anesthetized rats, as shown by a leftward shift in the dose-response curve with a […] and an increase in response efficacy for both agonists (FIG. 16) and this occurred without any changes in the portion of neurons showing a rate increase or decrease to the acute METH challenge.
Electrophysiological assessment of the ventral pallidum was also conducted 30 days after repeated METH. […] For each experiment, an i.v. METH dose-response curve (METH was tested using a range of 0.06-2.0 mg/kg in saline vehicle) was generated for one ventral pallidal neuron per rat at 30 days withdrawal from repeated METH. Based on the analysis of curves where there was an excitatory effect of i.v. METH on ventral pallidal neurons (171 animals), there was a diminished excitatory effect of i.v. METH in the ventral pallidum of rats that were pretreated with METH only. This is illustrated by both the curves and corresponding Emax data in FIG. 17. This decrease only at long-term withdrawal mirrors the reduction seen in pallidal pCREB only after 14, but not at 3 day withdrawal from repeated METH (see Example III).

α1 = settings: read-out: receptor affinity (Ki) α1; cited from earlier work
D2 = D2 (Homo sapiens, UniProt P14416); settings: read-out: receptor affinity (Ki) D2; cited from earlier work
Chain of D2 (P14416 whole entry): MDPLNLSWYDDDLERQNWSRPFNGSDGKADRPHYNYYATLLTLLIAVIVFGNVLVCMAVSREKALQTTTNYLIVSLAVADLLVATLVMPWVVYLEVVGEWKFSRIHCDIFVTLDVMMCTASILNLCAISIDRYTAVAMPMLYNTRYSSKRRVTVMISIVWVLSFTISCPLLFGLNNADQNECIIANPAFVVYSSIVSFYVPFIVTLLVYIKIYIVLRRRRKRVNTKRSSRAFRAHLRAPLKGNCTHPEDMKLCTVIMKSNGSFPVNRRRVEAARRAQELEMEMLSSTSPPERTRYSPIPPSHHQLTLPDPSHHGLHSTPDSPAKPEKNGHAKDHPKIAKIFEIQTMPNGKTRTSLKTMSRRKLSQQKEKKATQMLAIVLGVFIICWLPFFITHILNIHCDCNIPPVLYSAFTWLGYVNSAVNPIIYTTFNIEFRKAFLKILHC

SMILES: CN1CCN2c3ncccc3Cc3ccccc3[C@@H]2C1 (racemic) [mirtazapine, 1,2,3,4,10,14b-hexahydro-2-methyl-pyrazino[2,1-a]pyrido[2,3-c]benzazepine]
- Emax of Firing Rate Increases of Acute Meth (ventral pallidal neurons; METH days 1-5, then antagonist, tested 31 days after last METH): 251% ± 21% (n = 5)
- Emax of Firing Rate Increases of Acute Meth (ventral pallidal neurons; Sal days 1-5, then antagonist, tested 31 days after last injection): 240% ± 44% (n = 5)
- effect of repeated METH on response of ventral pallidal neurons to acute METH challenge (ventral pallidal neurons; after 30 days withdrawal): reversal
- Ki (α1): 500 nM
- Ki (D2): > 1000 nM

Source: patent publication US20060035889A1, “Treatment for methamphetamine addiction and reduction of methamphetamine use using serotonin antagonists” (priority 2004, published 2006)
